Drawing on US10093623B2, “Cyclic amides as MetAP-2 inhibitors” (MERCK PATENT GmbH, priority 2012, dated 2018), this text covers IC50 for 14 compounds.

The target in the test is MetAP-2 (Homo sapiens, UniProt P50579). Put plainly: MetAP-2 activity measurement (coupled enzymatic reactions, Met-Arg-Ser substrate, dianisidine detection at 450 nm). The format is biochemical. The following applies: Inhibition of MetAP-2; read-out: IC50 enzyme. Summed up: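 Rate read from the linear part of the 450 nm absorbance trace. Dianisidine oxidation by peroxidase reports H2O2 made when amino acid oxidase acts on methionine cleaved from MAS tripeptide, one mol dye per mol Met; extinction coefficient gives molar activity.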
MetAP-2, sequence (P50579 whole entry, species assumed): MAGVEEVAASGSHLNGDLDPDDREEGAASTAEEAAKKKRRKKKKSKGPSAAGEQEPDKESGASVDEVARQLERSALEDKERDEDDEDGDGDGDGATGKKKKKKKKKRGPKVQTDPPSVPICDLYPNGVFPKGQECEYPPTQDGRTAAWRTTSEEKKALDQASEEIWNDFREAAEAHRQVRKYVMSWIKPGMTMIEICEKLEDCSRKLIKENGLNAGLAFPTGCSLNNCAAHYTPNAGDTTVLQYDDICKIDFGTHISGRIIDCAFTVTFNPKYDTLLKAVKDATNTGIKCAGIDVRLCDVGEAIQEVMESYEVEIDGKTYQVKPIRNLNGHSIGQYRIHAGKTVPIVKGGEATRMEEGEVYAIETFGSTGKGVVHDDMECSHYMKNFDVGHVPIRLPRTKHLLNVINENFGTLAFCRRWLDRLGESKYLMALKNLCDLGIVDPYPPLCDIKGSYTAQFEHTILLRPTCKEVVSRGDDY

Molecules are shown by their SMILES. Some results are limits rather than exact numbers.

One may read the IC50 as the point on the concentration scale where inhibition reaches its midpoint. `O=C(NCc1cc(F)cc(Cl)c1)C1(O)CCN(C[C@H]2CC[C@@H](C(=O)O)CC2)C1=O` (some centres unmarked) [A274, 4-[3-(3-Chloro-5-fluorobenzylcarbamoyl)-3-hydroxy-2-oxopyrrolidin-1-yl-methyl]cyclohexanecarboxylic acid]: the IC50 was 1000 to 10000 nM.
With `CCN1C[C@@H]2[C@H](C1)[C@H]2N1CCC(O)(C(=O)NCc2cc(F)cc(Cl)c2)C1=O` (stereo partly drawn) [A275, N-(3-Chloro-5-fluorobenzyl)-1-((1S,5R,6S)-3-ethyl-3-aza-bicyclo[3.1.0]hex-6-yl)-3-hydroxy-2-oxopyrrolidine-3-carboxamide], the IC50 is > 10000 nM.
Regarding `Cn1nccc1CN1CCC(O)(C(=O)NCc2cc(F)cc(Cl)c2)C1=O` (centres unmarked) [A276, N-(3-Chloro-5-fluorobenzyl)-3-hydroxy-1-(2-methyl-2H-pyrazol-3-ylmethyl)-2-oxopyrrolidine-3-carboxamide], the IC50 is 1000 to 10000 nM.
With `O=C(NCc1cc(F)cc(Cl)c1)C1(O)CCN(Cc2cc[nH]n2)C1=O` (centres unmarked) [A277, N-(3-Chloro-5-fluorobenzyl)-3-hydroxy-2-oxo-1-(1H-pyrazol-3-ylmethyl)pyrrolidine-3-carboxamide], the IC50 is 10 to 1000 nM.
For the compound `CNC(=O)[C@H]1CC[C@H](CN2CCC(O)(C(=O)NCc3cc(F)cc(Cl)c3)C2=O)CC1` (some centres unmarked) [A278, N-(3-Chloro-5-fluorobenzyl)-3-hydroxy-1-(4-methylcarbamoyl-cyclohexylmethyl)-2-oxo-pyrrolidine-3-carboxamide], the IC50 lay in the range of 10 to 1000 nM.
On to `O=C(NCc1cc(F)cc(Cl)c1)C1(O)CCN(Cc2c[nH]cn2)C1=O` (centres unmarked) [A279, N-(3-Chloro-5-fluorobenzyl)-3-hydroxy-1-(1H-imidazol-4-ylmethyl)-2-oxopyrrolidine-3-carboxamide], for which the half-maximal inhibitory concentration (IC50) fell in the range of 1000 to 10000 nM.
On to `Cc1ccc(CN2CCC(O)(C(=O)NCc3cc(F)cc(Cl)c3)C2=O)n1C` (centres unmarked) [A280, N-(3-Chloro-5-fluorobenzyl)-1-(1,5-Dimethyl-1H-pyrrol-2-ylmethyl)-3-hydroxy-2-oxo-pyrrolidine-3-carboxamide], for which the IC50 was in the range of 1000 to 10000 nM.
To `CS(=O)(=O)N1CC[C@H](N2CCC(O)(C(=O)NCc3cc(F)cc(Cl)c3)C2=O)C1` (stereo partly drawn) [A281, N-(3-Chloro-5-fluorobenzyl)-(S)-3-hydroxy-1′-methanesulfonyl-2-oxo[1,3′]bipyrrolidinyl-3-carboxamide] belongs 1000 to 10000 nM.
Regarding `O=C(CN1CCC(O)(C(=O)NCc2cc(F)cc(Cl)c2)C1=O)NCCO` (centres unmarked) [A282, N-(3-Chloro-5-fluorobenzyl)-3-hydroxy-1-[(2-hydroxy-ethylcarbamoyl)methyl]-2-oxo-pyrrolidine-3-carboxamide], the IC50 lay within 1000 to 10000 nM.
Take `O=C1CCc2cc(N3CC[C@](O)(C(=O)NCc4ccc(F)c(F)c4F)C3=O)ccc2N1` [A284, N-(2,3,4-Trifluorobenzyl)-(S)-3-hydroxy-2-oxo-1-(2-oxo-1,2,3,4-tetrahydroquinolin-6-yl)-pyrrolidine-3-carboxamide]: the IC50 lay in the range of 10 to 1000 nM.
As for `O=C1Nc2ccc(N3CC[C@](O)(C(=O)NCc4cc(F)cc(Cl)c4)C3=O)cc2C1(F)F` [A286, N-(3-Chloro-5-fluorobenzyl)-(S)-1-(3,3-difluoro-2-oxo-2,3-dihydro-1H-indol-5-yl)-3-hydroxy-2-oxopyrrolidine-3-carboxamide], the IC50 is 10 to 1000 nM.
In the case of `O=C1Nc2ccc(N3CC[C@@](O)(C(=O)NCc4cc(F)cc(Cl)c4)C3=O)cc2C1(F)F` [A288, N-(3-Chloro-5-fluorobenzyl)-(R)-1-(3,3-difluoro-2-oxo-2,3-dihydro-1H-indol-5-yl)-3-hydroxy-2-oxopyrrolidine-3-carboxamide], the IC50 is > 10000 nM.
As for `Cc1nnc(CN2CCC(O)(C(=O)NCc3cc(F)cc(Cl)c3)C2=O)o1` (centres unmarked) [A290, N-(3-Chloro-5-fluorobenzyl)-3-hydroxy-1-(5-methyl-1,3,4-oxadiazol-2-ylmethyl)-2-oxo-pyrrolidine-3-carboxamide], the IC50 was 1000 to 10000 nM.
In the case of `CC(=O)N1CC[C@@H](N2CCC(O)(C(=O)NCc3cc(F)cc(Cl)c3)C2=O)C1` (stereo partly drawn) [A291, N-(3-chloro-5-fluorobenzyl-)(R)-1′-acetyl-3-hydroxy-2-oxo-[1,3′]bipyrrolidinyl-3-carboxamide], the IC50 is 1000 to 10000 nM.
